{"source": "patent US20190022166A1", "about": "“ORAL ANTI-INFLAMMATORY PEPTIDES TO TREAT EPILEPSY, SEIZURES AND CNS DISORDERS” (Creative Bio-Peptides Inc., priority 2017, published 2019)", "key": {"[1]": {"molecular_target": "CCR5 receptor on human monocytes (human) (UniProt P51681)", "assay": "cell-based or functional assay"}, "activated microglia": {"tested_on": "activated microglia", "assay": "Pre-clinical animal models: neuron loss with aging, activated microglial neurotoxicity", "format": "in vivo", "from_the_text": "In humans DAPTA improved cognition, speed of information processing and functional brain imaging in neuro-AIDS (24, 25). Therefore, it is believed that the compounds according to the present invention have a strong potential to improve cognitive deficits in the indicated conditions due to shared neurodegenerative inflammatory mechanisms."}, "IL-1": {"tested_on": "IL-1", "settings": "Hu; phenotype M1; cited from earlier work"}, "IL-6 [2]": {"tested_on": "IL-6", "settings": "Hu; phenotype M1; cited from earlier work"}, "IL-8": {"tested_on": "IL-8", "settings": "Hu; phenotype M1; cited from earlier work"}, "IL-23": {"tested_on": "IL-23", "settings": "Hu; phenotype M1; cited from earlier work"}, "TNFα [3]": {"tested_on": "TNFα", "settings": "Hu; phenotype M1; cited from earlier work"}, "ICAM-1": {"tested_on": "ICAM-1", "settings": "Hu; phenotype M1; cited from earlier work"}, "STAT3": {"tested_on": "STAT3", "settings": "Hu; phenotype M1; cited from earlier work"}, "NFkB": {"tested_on": "NFkB", "settings": "Hu; phenotype M1; cited from earlier work"}, "TLR4/MyD88 [4]": {"tested_on": "TLR4/MyD88", "settings": "Rat; phenotype M1; cited from earlier work"}, "IL-4": {"tested_on": "IL-4", "settings": "Hu; phenotype M2; cited from earlier work"}, "IL-10": {"tested_on": "IL-10", "settings": "Hu; phenotype M2; cited from earlier work"}, "IL-13": {"tested_on": "IL-13", "settings": "Hu; phenotype M2; cited from earlier work"}, "CCL5": {"tested_on": "CCL5", "settings": "mouse synaptosomes; cited from earlier work"}, "[5]": {"settings": "humans, neuro-AIDS; cited from earlier work"}, "CCR2 [6]": {"molecular_target": "T1, CCR2 (Homo sapiens, UniProt P41597)", "T1 sequence (P41597 1-360 isoform P41597-2)": "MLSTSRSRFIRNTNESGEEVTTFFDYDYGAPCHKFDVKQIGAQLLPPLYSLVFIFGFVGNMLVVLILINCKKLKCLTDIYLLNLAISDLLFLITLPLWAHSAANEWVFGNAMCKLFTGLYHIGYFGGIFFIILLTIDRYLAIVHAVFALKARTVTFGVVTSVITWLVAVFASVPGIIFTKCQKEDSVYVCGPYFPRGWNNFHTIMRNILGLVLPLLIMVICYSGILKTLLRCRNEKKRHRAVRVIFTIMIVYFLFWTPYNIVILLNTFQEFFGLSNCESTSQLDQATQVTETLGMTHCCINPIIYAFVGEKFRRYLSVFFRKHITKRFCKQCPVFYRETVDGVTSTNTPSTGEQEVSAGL", "assay": "CCL2 (MCP-1) elicited chemotaxis of human monocytes", "format": "cell-based", "parameters": "endogenous in cells; host or cells: human monocytes", "settings": "FIG. 3; methods similar to FIG. 2; low concentration", "description": "Monocytes were treated with the indicated doses of RAP-103 for 30 min before chemotaxis against human CCL2 (MCP-1) or CCL4 (MIP-1β) (both 50 ng/mL) for 90 min. Data (chemotactic index) are presented as mean ±SEM. The chemotactic index for MCP-1 without RAP-103 was 2.5-3.5 times over control, whereas for MIP-1 ? without RAP-103, it was approximately 2 times over control. Data are presented as mean ±SEM. (*P<0.05, **P<0.01 vs RAP-103 untreated). Data are from (12), FIG. 1. […] Dual-chemokine CCR2/CCR5 receptor antagonists may have added therapeutic value by blocking multiple inflammatory pathways.\nThe methods employed are similar to those in FIG. 2."}, "CCR2 [7]": {"tested_on": "CCR2", "settings": "Rat, nerve injured, oral gavage 0.05-1 mg/kg for 7 days, M1", "from_the_text": "(§1) The specific experimental details are provided in Padi, 2012 (12)."}, "CCR5 [8]": {"tested_on": "CCR5", "settings": "Rat, nerve injured, oral gavage 0.05-1 mg/kg for 7 days, M1", "from_the_text": "as §1"}, "IL-1β": {"tested_on": "IL-1β", "settings": "Rat, nerve injured, oral gavage 0.05-1 mg/kg for 7 days, M1", "from_the_text": "as §1"}, "IL-6 [9]": {"tested_on": "IL-6", "settings": "Rat, nerve injured; oral gavage 0.05-1 mg/kg for 7 days; M1", "from_the_text": "as §1"}, "MCP-1 (CCL2)": {"tested_on": "MCP-1 (CCL2)", "settings": "Rat, nerve injured, oral gavage 0.05-1 mg/kg for 7 days, M1", "from_the_text": "as §1"}, "MIP-1α (CCL3)": {"tested_on": "MIP-1α (CCL3)", "settings": "Rat, nerve injured, oral gavage 0.05-1 mg/kg for 7 days, M1", "from_the_text": "as §1"}, "TNFα [10]": {"tested_on": "TNFα", "settings": "Rat, nerve injured, oral gavage 0.05-1 mg/kg for 7 days, M1", "from_the_text": "as §1"}, "TLR4/MyD88 [11]": {"tested_on": "TLR4/MyD88", "settings": "iDCs, peptide 10-12 M for 30 min, then LPS 100 ng/ml, 48 hrs", "description": "(§2) To determine whether all-D-TTNYT (SEQ ID NO:1) blocks maturation of antigen-presenting dendritic cells, human PBMC's were isolated from peripheral blood by Ficoll-Paque centrifugation and then monocytes were isolated by negative selection using immunobeads (Miltenyi). Human monocyte derived immature dendritic cells (iDCs) were then generated by treating monocytes with GM-CSF/IL4.\nThe iDCs were treated with all-D-TTNYT (SEQ ID NO:1), generic name RAP103 (12), at 10-12 M for 30 min. After 30 min LPS (100 ng/ml) was added to the cells and cells were analyzed after 48 hrs. for surface maturation markers using fluorescent labeled antibodies by flow cytometry."}, "[12]": {"molecular_target": "insulin-like growth factor 1 receptor (IGF-1R) (Homo sapiens, UniProt P08069)", "sequence (P08069 31-736 limits assumed)": "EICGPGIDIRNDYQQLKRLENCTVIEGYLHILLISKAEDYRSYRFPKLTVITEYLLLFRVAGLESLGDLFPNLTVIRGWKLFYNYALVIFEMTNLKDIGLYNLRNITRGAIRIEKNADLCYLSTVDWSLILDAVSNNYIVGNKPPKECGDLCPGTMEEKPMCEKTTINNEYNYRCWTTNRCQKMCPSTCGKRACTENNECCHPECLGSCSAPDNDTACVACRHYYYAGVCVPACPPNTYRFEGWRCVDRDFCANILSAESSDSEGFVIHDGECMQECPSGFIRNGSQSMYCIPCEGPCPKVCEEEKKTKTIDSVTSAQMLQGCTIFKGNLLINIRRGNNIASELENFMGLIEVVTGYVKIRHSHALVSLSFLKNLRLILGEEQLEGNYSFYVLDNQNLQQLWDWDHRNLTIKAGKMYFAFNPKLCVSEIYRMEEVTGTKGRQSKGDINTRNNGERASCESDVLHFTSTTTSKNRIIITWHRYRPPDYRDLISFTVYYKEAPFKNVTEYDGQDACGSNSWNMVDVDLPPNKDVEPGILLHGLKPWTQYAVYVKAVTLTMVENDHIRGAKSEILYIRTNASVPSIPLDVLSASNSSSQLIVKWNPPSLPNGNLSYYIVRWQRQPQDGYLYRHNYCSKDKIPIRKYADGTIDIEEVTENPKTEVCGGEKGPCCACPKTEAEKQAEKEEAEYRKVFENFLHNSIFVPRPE", "description": "as §2\nThe iDCs were treated with all-D-TTNYT (SEQ ID NO:1), generic name RAP103 (12), at 10-12 M for 30 min. […]"}, "CCR2 [13]": {"molecular_target": "T1, CCR2", "settings": "30 min pretreatment, CCL2 50 ng/mL for 90 min, FIG. 2, cited from earlier work"}, "CCR5 [14]": {"molecular_target": "CCR5 (Homo sapiens, UniProt P51681)", "sequence (P51681 whole entry)": "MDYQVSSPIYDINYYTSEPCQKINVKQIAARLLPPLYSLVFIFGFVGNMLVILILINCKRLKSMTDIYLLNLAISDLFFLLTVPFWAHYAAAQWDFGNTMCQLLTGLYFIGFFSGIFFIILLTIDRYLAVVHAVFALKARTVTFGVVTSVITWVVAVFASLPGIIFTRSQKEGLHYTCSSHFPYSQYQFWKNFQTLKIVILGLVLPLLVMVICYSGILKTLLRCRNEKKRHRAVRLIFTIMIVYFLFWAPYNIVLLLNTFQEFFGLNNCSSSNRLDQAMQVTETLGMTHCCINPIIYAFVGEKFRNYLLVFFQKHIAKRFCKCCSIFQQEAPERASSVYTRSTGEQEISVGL", "settings": "30 min pretreatment, CCL4 50 ng/mL for 90 min, FIG. 2, cited from earlier work"}, "response to bradykinin": {"tested_on": "response to bradykinin", "settings": "amounts up to 50,000 times the standard challenge of bradykinin; cited from earlier work"}, "[15]": {"molecular_target": "CCR2 receptor on human monocytes (human) (UniProt P41597)", "assay": "cell-based or functional assay"}, "[16]": {"settings": "listed as all-D-pentapeptide TTNYT"}}, "note": "Entries after “also recorded” stand apart in the source; their conditions may differ. Read-outs that look alike come from different tables or passages of the source. Where no end group is shown, it is not given here. [ ]: non-standard residue; d: D form."}
{"substance": "CCL4 (MIP-1β) (from UniProt P13236 24-92) (ligand)", "values": [{"measurement": "chemotactic index of human monocytes, without RAP-103 (times over control)", "setting": "[1]", "value": 2}]}
{"substance": "Dala1-peptide T-amide [DAPTA]", "values": [{"measurement": "activated microglial mediated neurotoxicity and release of cytokines and chemokines", "setting": "activated microglia", "value": "blocked"}, {"measurement": "loss of neurons with aging", "setting": "activated microglia", "value": "prevented"}, {"measurement": "IL-1 Change", "setting": "IL-1", "value": "reduced; also recorded: decrease"}, {"measurement": "IL-6 Change", "setting": "IL-6 [2]", "value": "reduced; also recorded: decrease"}, {"measurement": "IL-8 Change", "setting": "IL-8", "value": "reduced; also recorded: decrease"}, {"measurement": "IL-23 Change", "setting": "IL-23", "value": "decrease"}, {"measurement": "TNFα Change", "setting": "TNFα [3]", "value": "reduced; also recorded: decrease"}, {"measurement": "ICAM-1 Change", "setting": "ICAM-1", "value": "decrease"}, {"measurement": "STAT3 Change", "setting": "STAT3", "value": "decrease"}, {"measurement": "NFkB Change", "setting": "NFkB", "value": "decrease"}, {"measurement": "TLR4/MyD88 Change", "setting": "TLR4/MyD88 [4]", "value": "decrease"}, {"measurement": "IL-4 Change", "setting": "IL-4", "value": "elevated; also recorded: increase"}, {"measurement": "IL-10 Change", "setting": "IL-10", "value": "elevated; also recorded: increase"}, {"measurement": "IL-13 Change", "setting": "IL-13", "value": "elevated; also recorded: increase"}, {"measurement": "CCL5 facilitated release of aspartate", "setting": "CCL5", "value": "blocked"}, {"measurement": "cognition", "setting": "[5]", "value": "improved"}, {"measurement": "functional brain imaging", "setting": "[5]", "value": "improved"}, {"measurement": "speed of information processing", "setting": "[5]", "value": "improved"}]}
{"substance": "all-D-NTSYR: all-D-version of DAPTA related pentapeptide NTSYR ([dN][dT][dS][dY][dR])", "values": [{"measurement": "CCL2 (MCP-1) human monocyte chemotaxis", "setting": "CCR2 [6]", "value": "antagonists"}]}
{"substance": "all-D-SSTYR: all-D-version of DAPTA related pentapeptide SSTYR ([dS][dS][dT][dY][dR])", "values": [{"measurement": "CCL2 (MCP-1) human monocyte chemotaxis", "setting": "CCR2 [6]", "value": "antagonists"}]}
{"substance": "all-D-TTNYT", "values": [{"measurement": "CCR2 Change", "setting": "CCR2 [7]", "value": "decrease"}, {"measurement": "CCR2 Change", "setting": "CCR2 [7]; [16]", "value": "lowering"}, {"measurement": "CCR5 Change", "setting": "CCR5 [8]", "value": "decrease"}, {"measurement": "CCR5 Change", "setting": "CCR5 [8]; [16]", "value": "lowering"}, {"measurement": "IL-1β Change", "setting": "IL-1β", "value": "decrease"}, {"measurement": "IL-1β Change", "setting": "IL-1β; [16]", "value": "lowering"}, {"measurement": "IL-6 Change", "setting": "IL-6 [9]", "value": "decrease"}, {"measurement": "MCP-1 (CCL2) Change", "setting": "MCP-1 (CCL2)", "value": "decrease"}, {"measurement": "MCP-1 (CCL2) Change", "setting": "MCP-1 (CCL2); [16]", "value": "lowering"}, {"measurement": "MIP-1α (CCL3) Change", "setting": "MIP-1α (CCL3)", "value": "decrease"}, {"measurement": "MIP-1α (CCL3) Change", "setting": "MIP-1α (CCL3); [16]", "value": "lowering"}, {"measurement": "TNFα Change", "setting": "TNFα [10]", "value": "decrease"}, {"measurement": "TNFα Change", "setting": "TNFα [10]; [16]", "value": "lowering"}, {"measurement": "CD58 (adhesion molecule) expression", "setting": "TLR4/MyD88 [11]", "value": "reduced"}, {"measurement": "CD86 expression", "setting": "TLR4/MyD88 [11]", "value": "reduced"}, {"measurement": "HLA-DR expression", "setting": "TLR4/MyD88 [11]", "value": "reduced"}, {"measurement": "ICAM1 (adhesion molecule) expression", "setting": "TLR4/MyD88 [11]", "value": "reduced"}, {"measurement": "TLR4-mediated maturation of antigen presenting dendritic cells", "setting": "TLR4/MyD88 [11]", "value": "blocks"}, {"measurement": "DC maturation of these four markers caused by LL37", "setting": "[12]", "value": "no effect"}, {"measurement": "MCP-1 (CCL2)-elicited chemotaxis of human monocytes", "setting": "CCR2 [13]", "value": "potently blocking"}, {"measurement": "MCP-1 (CCL2)-elicited chemotaxis of human monocytes", "setting": "CCR2 [13]; listed as RAP-103", "value": "dual-antagonist"}, {"measurement": "MIP-1β (CCL4)-elicited chemotaxis of human monocytes", "setting": "CCR5 [14]", "value": "potently blocking"}, {"measurement": "MIP-1β (CCL4)-elicited chemotaxis of human monocytes", "setting": "CCR5 [14]; listed as RAP-103", "value": "dual-antagonist"}]}
{"substance": "all-D-TTSYT: all-D-version of DAPTA related pentapeptide TTSYT ([dT][dT][dS][dY][dT])", "values": [{"measurement": "CCL2 (MCP-1) human monocyte chemotaxis", "setting": "CCR2 [6]", "value": "antagonists"}]}
{"substance": "all-D-bradykinin", "values": [{"measurement": "inhibition of the response to bradykinin or bradykinin-like effect", "setting": "response to bradykinin", "value": "neither any inhibition of the response to bradykinin, or any bradykinin-like effect"}]}
{"substance": "human CCL2 (MCP-1) (from UniProt P13500 24-99) (ligand)", "values": [{"measurement": "chemotactic index of human monocytes, without RAP-103 (times over control)", "setting": "[15]", "value": "2.5 to 3.5"}]}
